Here are results for 5 molecules from article PMC5564600 (Oncotarget, 2017).

What all share (test): biochemical
What all share (assay type): binding

The target of assay [1] is T1, panel of 442 kinases (Homo sapiens, UniProt P00533, L861Q).
T1 construct: purchased Ambit Biosciences (scanMAXX KINOMEscan)
The following applies: EGFR(L861Q); for remaining activity at 1 µM: read-out: % of control at 1 µM.

Assay [2] deals with T2, panel of 442 kinases (Homo sapiens, UniProt P06239).
T2 construct: purchased Ambit Biosciences (scanMAXX KINOMEscan)
Conditions: kinase LCK; for remaining activity at 1 µM: read-out: % of control at 1 µM.

Assay [3] concerns the target T3, panel of 442 kinases (Homo sapiens, UniProt P08631).
T3 construct: purchased Ambit Biosciences (scanMAXX KINOMEscan)
Conditions: kinase HCK; for remaining activity at 1 µM: read-out: % of control at 1 µM.

Assay [4] concerns the target T4, panel of 442 kinases (Homo sapiens, UniProt P10721, A829P).
T4 construct: purchased Ambit Biosciences (scanMAXX KINOMEscan)
The following applies: kinase KIT(A829P); for remaining activity at 1 µM: read-out: % of control at 1 µM.

The target in assay [5] is T5, panel of 442 kinases (Homo sapiens, UniProt P48730).
T5 construct: purchased Ambit Biosciences (scanMAXX KINOMEscan)
T5 sequence (P48730 whole entry): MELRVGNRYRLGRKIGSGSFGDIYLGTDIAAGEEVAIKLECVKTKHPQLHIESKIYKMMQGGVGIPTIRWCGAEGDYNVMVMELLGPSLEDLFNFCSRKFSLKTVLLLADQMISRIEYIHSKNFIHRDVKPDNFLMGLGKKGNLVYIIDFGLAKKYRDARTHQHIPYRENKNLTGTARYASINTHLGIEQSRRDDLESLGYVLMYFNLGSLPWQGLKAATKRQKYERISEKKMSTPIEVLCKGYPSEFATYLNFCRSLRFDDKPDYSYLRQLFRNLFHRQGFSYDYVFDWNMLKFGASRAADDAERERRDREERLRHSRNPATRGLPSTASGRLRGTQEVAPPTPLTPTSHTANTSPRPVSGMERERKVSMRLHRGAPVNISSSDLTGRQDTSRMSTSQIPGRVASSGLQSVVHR
The following applies: CSNK1D; for remaining activity at 1 µM: read-out: % of control at 1 µM.

Assay [6] concerns the target T6, panel of 442 kinases (Homo sapiens, UniProt P80192).
T6 construct: purchased Ambit Biosciences (scanMAXX KINOMEscan)
Conditions: kinase MLK1; for remaining activity at 1 µM: read-out: % of control at 1 µM.

Assay [7] deals with T7, panel of 442 kinases (Homo sapiens, UniProt Q14680).
T7 construct: purchased Ambit Biosciences (scanMAXX KINOMEscan)
T7 sequence (Q14680 whole entry): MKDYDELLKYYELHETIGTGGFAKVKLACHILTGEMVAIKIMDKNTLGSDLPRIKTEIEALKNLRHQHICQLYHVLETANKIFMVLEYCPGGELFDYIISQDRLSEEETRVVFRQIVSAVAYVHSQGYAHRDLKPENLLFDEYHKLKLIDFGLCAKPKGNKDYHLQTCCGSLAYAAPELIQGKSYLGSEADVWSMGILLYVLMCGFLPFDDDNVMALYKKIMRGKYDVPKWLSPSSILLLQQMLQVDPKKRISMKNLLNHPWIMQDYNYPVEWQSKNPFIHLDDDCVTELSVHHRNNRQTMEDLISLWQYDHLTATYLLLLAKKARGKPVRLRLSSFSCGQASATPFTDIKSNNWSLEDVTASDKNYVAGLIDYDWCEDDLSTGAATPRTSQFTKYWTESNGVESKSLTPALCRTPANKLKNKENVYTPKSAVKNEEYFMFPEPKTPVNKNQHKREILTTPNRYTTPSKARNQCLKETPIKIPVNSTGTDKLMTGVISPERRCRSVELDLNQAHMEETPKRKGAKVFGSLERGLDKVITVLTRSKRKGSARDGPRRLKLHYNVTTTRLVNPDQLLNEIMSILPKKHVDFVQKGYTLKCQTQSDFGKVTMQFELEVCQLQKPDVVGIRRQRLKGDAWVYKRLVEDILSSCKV
The following applies: kinase MELK; for remaining activity at 1 µM: read-out: % of control at 1 µM.

The target of assay [8] is T8, panel of 442 kinases (Homo sapiens, UniProt Q15208).
T8 construct: purchased Ambit Biosciences (scanMAXX KINOMEscan)
T8 sequence (Q15208 whole entry): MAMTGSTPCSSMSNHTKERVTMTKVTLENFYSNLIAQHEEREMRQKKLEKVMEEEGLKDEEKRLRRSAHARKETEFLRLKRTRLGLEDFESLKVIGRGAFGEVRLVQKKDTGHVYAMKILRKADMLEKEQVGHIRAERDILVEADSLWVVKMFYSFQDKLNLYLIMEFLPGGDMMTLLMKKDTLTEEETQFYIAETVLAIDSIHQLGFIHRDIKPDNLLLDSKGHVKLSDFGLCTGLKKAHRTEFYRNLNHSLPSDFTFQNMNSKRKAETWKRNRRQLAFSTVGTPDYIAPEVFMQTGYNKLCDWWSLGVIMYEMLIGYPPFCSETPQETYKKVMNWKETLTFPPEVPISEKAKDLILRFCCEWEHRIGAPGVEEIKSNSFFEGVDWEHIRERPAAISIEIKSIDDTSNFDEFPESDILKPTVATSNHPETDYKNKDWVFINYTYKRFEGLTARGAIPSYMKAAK
Conditions: kinase NDR1; for remaining activity at 1 µM: read-out: % of control at 1 µM.

The target of assay [9] is T9, panel of 442 kinases (Homo sapiens, UniProt Q8NFD2).
T9 construct: purchased Ambit Biosciences (scanMAXX KINOMEscan)
T9 sequence (Q8NFD2 1-765): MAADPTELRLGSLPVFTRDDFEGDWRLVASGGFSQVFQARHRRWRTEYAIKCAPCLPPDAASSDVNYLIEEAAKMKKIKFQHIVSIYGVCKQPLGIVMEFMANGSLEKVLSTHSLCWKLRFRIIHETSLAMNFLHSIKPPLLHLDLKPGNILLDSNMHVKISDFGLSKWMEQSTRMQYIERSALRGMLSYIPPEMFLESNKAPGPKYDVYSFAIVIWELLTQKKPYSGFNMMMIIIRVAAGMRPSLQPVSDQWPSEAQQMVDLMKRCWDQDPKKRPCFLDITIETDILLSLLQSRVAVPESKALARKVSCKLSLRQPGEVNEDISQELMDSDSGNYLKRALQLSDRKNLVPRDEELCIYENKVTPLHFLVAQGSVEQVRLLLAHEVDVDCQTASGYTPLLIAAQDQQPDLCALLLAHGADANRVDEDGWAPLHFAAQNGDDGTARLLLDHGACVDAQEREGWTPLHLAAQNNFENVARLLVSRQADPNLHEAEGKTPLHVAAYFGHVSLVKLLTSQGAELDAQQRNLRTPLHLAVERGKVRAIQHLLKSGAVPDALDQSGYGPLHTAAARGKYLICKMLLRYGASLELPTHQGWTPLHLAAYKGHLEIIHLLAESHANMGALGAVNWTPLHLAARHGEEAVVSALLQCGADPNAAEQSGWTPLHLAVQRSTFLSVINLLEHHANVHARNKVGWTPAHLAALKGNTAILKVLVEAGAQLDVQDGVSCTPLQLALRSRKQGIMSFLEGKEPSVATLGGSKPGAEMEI
Conditions: ANKK1; for remaining activity at 1 µM: read-out: % of control at 1 µM.

The target in assay [10] is T10, panel of 442 kinases (Homo sapiens, UniProt Q9UBE8).
T10 construct: purchased Ambit Biosciences (scanMAXX KINOMEscan)
T10 sequence (Q9UBE8 1-527): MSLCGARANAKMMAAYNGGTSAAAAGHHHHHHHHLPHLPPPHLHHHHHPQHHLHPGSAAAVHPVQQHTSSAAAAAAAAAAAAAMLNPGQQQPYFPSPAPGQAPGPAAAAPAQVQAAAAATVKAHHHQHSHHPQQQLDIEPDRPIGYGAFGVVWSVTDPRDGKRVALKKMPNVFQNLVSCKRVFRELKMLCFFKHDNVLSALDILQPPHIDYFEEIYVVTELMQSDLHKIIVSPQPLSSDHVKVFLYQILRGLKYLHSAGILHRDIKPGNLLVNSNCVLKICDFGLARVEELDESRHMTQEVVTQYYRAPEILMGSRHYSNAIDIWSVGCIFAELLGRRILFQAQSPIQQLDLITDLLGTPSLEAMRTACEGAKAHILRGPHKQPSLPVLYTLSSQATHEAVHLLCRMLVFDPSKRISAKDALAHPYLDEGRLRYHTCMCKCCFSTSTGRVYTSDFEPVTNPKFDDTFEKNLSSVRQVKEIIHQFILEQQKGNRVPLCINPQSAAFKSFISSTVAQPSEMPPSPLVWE
The following applies: kinase NLK; for remaining activity at 1 µM: read-out: % of control at 1 µM.

The target of assay [11] is T11, panel of 442 kinases (Plasmodium falciparum, UniProt P62344).
T11 construct: purchased Ambit Biosciences (scanMAXX KINOMEscan)
T11 sequence (P62344 whole entry): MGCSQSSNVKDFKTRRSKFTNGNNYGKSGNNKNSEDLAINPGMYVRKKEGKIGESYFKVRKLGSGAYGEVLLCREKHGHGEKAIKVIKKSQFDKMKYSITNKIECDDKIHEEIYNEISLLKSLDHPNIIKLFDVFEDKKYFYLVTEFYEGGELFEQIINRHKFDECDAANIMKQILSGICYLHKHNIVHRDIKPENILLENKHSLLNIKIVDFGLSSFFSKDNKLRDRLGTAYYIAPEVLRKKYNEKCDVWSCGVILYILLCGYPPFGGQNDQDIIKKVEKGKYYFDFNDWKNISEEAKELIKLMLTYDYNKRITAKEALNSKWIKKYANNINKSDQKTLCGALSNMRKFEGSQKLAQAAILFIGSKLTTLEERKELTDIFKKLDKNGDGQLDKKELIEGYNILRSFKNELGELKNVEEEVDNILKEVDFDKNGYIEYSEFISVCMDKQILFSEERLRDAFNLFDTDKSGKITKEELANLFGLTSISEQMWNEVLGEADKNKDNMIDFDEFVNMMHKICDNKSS
Conditions: kinase PFCDPK1(P.falciparum); for remaining activity at 1 µM: read-out: % of control at 1 µM; for remaining activity at 10 µM: read-out: % of control at 10 µM.

[12] abbreviates: 10 µM, read-out: % of control at 10 µM.

T6 sequence (P80192 whole entry): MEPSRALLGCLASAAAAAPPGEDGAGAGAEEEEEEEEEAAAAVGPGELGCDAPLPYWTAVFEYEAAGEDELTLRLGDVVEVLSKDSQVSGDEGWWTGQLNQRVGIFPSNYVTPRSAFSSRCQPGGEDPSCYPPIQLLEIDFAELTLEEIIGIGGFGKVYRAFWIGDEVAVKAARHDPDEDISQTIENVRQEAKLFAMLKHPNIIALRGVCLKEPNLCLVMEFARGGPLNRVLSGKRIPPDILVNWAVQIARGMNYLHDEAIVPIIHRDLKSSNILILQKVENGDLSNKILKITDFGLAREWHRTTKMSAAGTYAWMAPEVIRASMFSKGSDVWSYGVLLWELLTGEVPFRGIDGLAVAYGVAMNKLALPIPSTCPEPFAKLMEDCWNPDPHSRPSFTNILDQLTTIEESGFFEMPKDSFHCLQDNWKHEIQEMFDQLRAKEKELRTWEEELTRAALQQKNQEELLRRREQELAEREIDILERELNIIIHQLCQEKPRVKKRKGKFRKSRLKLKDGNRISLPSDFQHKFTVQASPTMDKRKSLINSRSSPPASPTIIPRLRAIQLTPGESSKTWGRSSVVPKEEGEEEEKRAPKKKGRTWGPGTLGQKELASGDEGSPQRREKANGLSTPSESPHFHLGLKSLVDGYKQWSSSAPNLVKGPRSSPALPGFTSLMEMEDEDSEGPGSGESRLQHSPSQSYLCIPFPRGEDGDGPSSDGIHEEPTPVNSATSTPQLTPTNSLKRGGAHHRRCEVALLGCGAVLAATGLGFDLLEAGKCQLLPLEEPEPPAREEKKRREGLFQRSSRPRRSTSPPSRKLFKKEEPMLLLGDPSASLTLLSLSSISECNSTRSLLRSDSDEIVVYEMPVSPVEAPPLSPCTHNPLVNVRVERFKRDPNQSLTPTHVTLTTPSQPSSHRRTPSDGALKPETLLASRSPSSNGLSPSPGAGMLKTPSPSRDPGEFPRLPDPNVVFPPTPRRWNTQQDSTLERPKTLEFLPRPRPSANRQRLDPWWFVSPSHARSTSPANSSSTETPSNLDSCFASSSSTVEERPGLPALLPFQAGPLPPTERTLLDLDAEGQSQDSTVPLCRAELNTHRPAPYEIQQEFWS
T3 sequence (P08631 whole entry): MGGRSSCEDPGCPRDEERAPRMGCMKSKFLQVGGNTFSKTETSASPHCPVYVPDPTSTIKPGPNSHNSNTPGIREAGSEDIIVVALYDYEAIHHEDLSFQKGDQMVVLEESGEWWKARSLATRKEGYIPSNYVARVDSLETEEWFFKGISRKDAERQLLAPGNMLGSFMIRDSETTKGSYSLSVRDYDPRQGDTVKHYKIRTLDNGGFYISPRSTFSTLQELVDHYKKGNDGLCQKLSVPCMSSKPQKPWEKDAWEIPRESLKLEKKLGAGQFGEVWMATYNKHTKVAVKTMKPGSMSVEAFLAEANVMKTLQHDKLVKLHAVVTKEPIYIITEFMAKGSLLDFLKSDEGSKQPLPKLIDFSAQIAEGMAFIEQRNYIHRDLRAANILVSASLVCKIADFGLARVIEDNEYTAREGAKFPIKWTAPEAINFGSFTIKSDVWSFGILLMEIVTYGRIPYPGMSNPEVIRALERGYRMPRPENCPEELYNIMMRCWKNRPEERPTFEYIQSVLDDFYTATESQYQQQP
T4 sequence (P10721 26-976 A829P): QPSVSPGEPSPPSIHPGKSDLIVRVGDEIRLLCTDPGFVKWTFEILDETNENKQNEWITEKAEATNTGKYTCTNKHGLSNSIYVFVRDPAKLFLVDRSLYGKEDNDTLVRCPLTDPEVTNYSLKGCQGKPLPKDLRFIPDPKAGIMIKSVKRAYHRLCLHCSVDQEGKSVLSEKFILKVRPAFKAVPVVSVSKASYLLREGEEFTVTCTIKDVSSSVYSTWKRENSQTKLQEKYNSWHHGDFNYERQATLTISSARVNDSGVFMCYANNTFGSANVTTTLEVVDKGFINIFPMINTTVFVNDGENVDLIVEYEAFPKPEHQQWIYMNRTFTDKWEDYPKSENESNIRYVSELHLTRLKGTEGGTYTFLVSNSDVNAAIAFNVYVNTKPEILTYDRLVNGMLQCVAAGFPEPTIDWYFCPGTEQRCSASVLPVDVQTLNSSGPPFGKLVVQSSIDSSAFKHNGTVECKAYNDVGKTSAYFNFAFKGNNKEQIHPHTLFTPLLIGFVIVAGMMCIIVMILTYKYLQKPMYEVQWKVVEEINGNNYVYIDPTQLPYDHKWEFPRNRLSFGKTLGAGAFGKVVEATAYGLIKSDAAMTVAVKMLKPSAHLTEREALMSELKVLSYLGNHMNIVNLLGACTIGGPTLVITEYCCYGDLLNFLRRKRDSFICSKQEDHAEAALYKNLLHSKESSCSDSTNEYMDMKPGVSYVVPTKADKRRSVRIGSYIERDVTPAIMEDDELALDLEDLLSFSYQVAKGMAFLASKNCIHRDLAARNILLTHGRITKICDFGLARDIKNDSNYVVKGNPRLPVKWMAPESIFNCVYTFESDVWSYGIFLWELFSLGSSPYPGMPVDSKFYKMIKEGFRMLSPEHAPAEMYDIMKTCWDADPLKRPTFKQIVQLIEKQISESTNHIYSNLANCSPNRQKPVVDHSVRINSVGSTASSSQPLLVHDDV

As for `Nc1cc(C(F)(F)F)c(-c2cc(N3CCOCC3)nc(N3CCOCC3)n2)cn1` [Buparlisib], the remaining activity at 1 µM on panel of 442 kinases [1] was found to be 88%; at panel of 442 kinases [2], 100%; at panel of 442 kinases [3] it was 100%; on panel of 442 kinases [4], 100%; at panel of 442 kinases [5], 92%; at panel of 442 kinases [6] it was 92%. Besides, the remaining activity at 1 µM is 90% at panel of 442 kinases [7]; 100% at panel of 442 kinases [8]; 91% at panel of 442 kinases [9]; 93% on panel of 442 kinases [10]; 99% at panel of 442 kinases [11]. Moreover, the remaining activity at 10 µM came out at 83% on panel of 442 kinases [1] (setting [12]); 100% at panel of 442 kinases [2] (setting [12]); 100% on panel of 442 kinases [3] (setting [12]); 98% at panel of 442 kinases [4] (setting [12]); 75% on panel of 442 kinases [5] (setting [12]); 99% on panel of 442 kinases [6] (setting [12]). Further, the remaining activity at 10 µM at panel of 442 kinases [7] (setting [12]) came out at 91%; at panel of 442 kinases [8] (setting [12]), 100%; at panel of 442 kinases [9] (setting [12]) it was 94%; on panel of 442 kinases [10] (setting [12]) it was 100%; at panel of 442 kinases [11], 100%.

For `Cn1c(=O)n(-c2ccc(C(C)(C)C#N)cc2)c2c3cc(-c4cnc5ccccc5c4)ccc3ncc21` [Dactolisib, 2-methyl-2-[4-(3-methyl-2-oxo-8-quinolin-3-yl-2,3-dihydroimidazo[4,5-c]quinolin-1-yl)-phenyl] propionitrile], the remaining activity at 1 µM at panel of 442 kinases [2] came out at 88%; at panel of 442 kinases [3], 94%; at panel of 442 kinases [4] it was 61%; at panel of 442 kinases [5] it was 76%; on panel of 442 kinases [6], 86%; at panel of 442 kinases [7], 45%. In addition, the remaining activity at 1 µM at panel of 442 kinases [8] was 100%; on panel of 442 kinases [9], 100%; on panel of 442 kinases [10] it was 81%; at panel of 442 kinases [11], 89%.

Take `FC(F)c1nc2ccccc2n1-c1nc(N2CCOCC2)nc(N2CCOCC2)n1` [ZSTK474, 2-(difluoromethyl)-1-[4,6-di(4-morpholinyl)-1,3,5-triazin-2-yl]-1H-benzimidazole]: the remaining activity at 1 µM was 100% at panel of 442 kinases [1]; 100% at panel of 442 kinases [2]; 100% on panel of 442 kinases [3]; 90% on panel of 442 kinases [4]; 67% on panel of 442 kinases [5]; 99% on panel of 442 kinases [6]. Also, the remaining activity at 1 µM on panel of 442 kinases [7] amounted to 100%; on panel of 442 kinases [8], 95%; at panel of 442 kinases [9], 100%; at panel of 442 kinases [10], 84%; on panel of 442 kinases [11], 82%.

On to `CS(=O)(=O)N1CCN(Cc2cc3nc(-c4cccc5[nH]ncc45)nc(N4CCOCC4)c3s2)CC1` [Pictilisib, 2-(1H-indazol-4-yl)-6-(4-methanesulfonyl-piperazin-1-ylmethyl)-4-morpholin-4-yl-t hieno[3,2-d]pyrimidine], for which, at panel of 442 kinases [11], the remaining activity at 1 µM was 100% and the remaining activity at 10 µM was found to be 63%.

As to `COc1ncc(-c2ccc3nccc(-c4ccnnc4)c3c2)cc1NS(=O)(=O)c1ccc(F)cc1F` [Omipalisib], the remaining activity at 1 µM at panel of 442 kinases [1], on panel of 442 kinases [2], on panel of 442 kinases [3], at panel of 442 kinases [4], on panel of 442 kinases [5] and on panel of 442 kinases [6] was 100% throughout. Further, the remaining activity at 1 µM at panel of 442 kinases [7] is 100%; at panel of 442 kinases [8], 100%; on panel of 442 kinases [9], 100%; at panel of 442 kinases [10] it was 95%; on panel of 442 kinases [11], 100%.
